Reference: patent US7307079B2, “1,3,5-Triazine derivatives as ligands for human adenosine-A3 receptors” (Solvay Pharmaceuticals, B.V., priority 2002, dated 2007)

Target: T1, human adenosine-A3 receptor (Homo sapiens, UniProt P0DMS8)
T1 construct: expressed in transfected cells; membrane preparations
T1 sequence (P0DMS8 1-318): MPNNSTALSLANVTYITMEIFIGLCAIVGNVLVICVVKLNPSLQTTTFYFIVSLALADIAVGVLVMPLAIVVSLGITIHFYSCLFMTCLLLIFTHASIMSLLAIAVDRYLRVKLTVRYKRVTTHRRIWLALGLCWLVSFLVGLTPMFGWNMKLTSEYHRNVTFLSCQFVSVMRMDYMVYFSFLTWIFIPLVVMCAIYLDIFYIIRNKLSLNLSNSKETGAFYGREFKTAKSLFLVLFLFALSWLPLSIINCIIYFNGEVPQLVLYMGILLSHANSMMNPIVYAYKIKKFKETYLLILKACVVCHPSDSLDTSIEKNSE
Test: Receptor binding to human adenosine-A3 receptors ([125I]-AB-MECA displacement, HEK 293 membranes)
Method: Receptor Binding to Human Adenosine-A3 Receptors
Affinity of the compounds for human adenosine-A3 receptors was determined using the receptor binding assay described by C. A. Salvatore et al.: Molecular cloning and characterization of the human A3 adenosine receptor, Proc. Natl. Acad. Sci. USA, 90, 10365-10369, 1993. Briefly, membrane preparations were obtained from human recombinant (HEK 293) cells in which the human adenosine-A3 receptor was stably expressed. Membranes were incubated at 22° C. for 90 minutes with [^125l]-AB-MECA in the absence or presence of testcompounds in a concentration range from 10 μM down to 0.1 nM, diluted in a suitable buffer. Separation of bound radioactivity from free was done by filtration through Packard GF/B glass fiber filters with several washings with ice-cold buffer using a Packard cell harvester. Bound radioactivity was measured with a scintillation counter (Topcount, Packard) using a liquid scintillation cocktail (Microscint 0, Packard). Measured radioactivity was plotted against the concentration of the displacing test compound and displacement curves were calculated by four-parameter logistic regression, resulting in IC50 values, i.e. that concentration of displacing compound by which 50% of the radioligand is displaced. […]

For `C[C@@H](Nc1nc(Cl)nc(Nc2ccc3c(c2)OCO3)n1)[C@@H](O)c1ccccc1` [formula (9), (1S,2R)-2-{[4-chloro-6-(3,4-methylenedioxy-phenylamino)-[1,3,5]triazin-2-yl]-amino}-1-phenyl-propan-1-ol], the Ki ([125I]-AB-MECA, membranes of HEK 293 cells expressing human A3, 22° C., 90 minutes, read-out: affinity for human adenosine-A3 receptors pKi (converted)) was 1 nM and the “affinity for human adenosine-A3 receptors (in words)” value (binding assay, result stated in words) was “highly active”.
